Measurements: ChEMBL document CHEMBL1909046, “DrugMatrix in vitro pharmacology data”

Legend:
[1] = DRUGMATRIX: Interleukin IL-1 radioligand binding (ligand: [125I] interleukin 1beta); assay type: cell membranes, Membrane; conditions: nih3t3; Not Active = under 50% inhibition at 10 µM
[2] = DRUGMATRIX: Purinergic P2X radioligand binding (ligand: [3H] alpha, beta-Methylene-ATP); assay type: cell membranes, Oryctolagus cuniculus, New Zealand albino, Urinary bladder, Membrane; conditions: Not Active = under 50% inhibition at 10 µM
[3] = target: Adenosine receptor A2a (Homo sapiens, UniProt P29274); test: DRUGMATRIX: Adenosine A2A radioligand binding (ligand: […]); assay type: cell membranes, HEK293, Membrane; conditions: hek293; Not Active = under 50% inhibition at 10 µM
Chain of Adenosine receptor A2a (P29274 whole entry): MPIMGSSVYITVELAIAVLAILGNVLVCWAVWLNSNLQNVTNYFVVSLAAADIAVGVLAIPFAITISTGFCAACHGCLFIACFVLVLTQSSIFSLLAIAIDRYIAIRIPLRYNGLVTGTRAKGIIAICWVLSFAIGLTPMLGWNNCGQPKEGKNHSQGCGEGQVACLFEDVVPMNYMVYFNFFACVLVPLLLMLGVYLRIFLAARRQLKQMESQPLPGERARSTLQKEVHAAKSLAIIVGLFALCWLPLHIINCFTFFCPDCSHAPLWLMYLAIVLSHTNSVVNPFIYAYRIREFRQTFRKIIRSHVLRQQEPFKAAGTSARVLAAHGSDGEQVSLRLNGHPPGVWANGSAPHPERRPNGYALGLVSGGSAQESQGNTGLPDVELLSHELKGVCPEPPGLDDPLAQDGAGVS

[4] = target: T1, Polyunsaturated fatty acid lipoxygenase ALOX15 (Oryctolagus cuniculus, UniProt P12530); test: biochemical; assay type: tissue-based, Reticulocytes;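 note: inhibition of 15-lipoxygenase enzyme activity measured with linoleic acid as the substrate; in other assays of this panel Not Active means under 50% inhibition at 10 µM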
T1 sequence (P12530 whole entry): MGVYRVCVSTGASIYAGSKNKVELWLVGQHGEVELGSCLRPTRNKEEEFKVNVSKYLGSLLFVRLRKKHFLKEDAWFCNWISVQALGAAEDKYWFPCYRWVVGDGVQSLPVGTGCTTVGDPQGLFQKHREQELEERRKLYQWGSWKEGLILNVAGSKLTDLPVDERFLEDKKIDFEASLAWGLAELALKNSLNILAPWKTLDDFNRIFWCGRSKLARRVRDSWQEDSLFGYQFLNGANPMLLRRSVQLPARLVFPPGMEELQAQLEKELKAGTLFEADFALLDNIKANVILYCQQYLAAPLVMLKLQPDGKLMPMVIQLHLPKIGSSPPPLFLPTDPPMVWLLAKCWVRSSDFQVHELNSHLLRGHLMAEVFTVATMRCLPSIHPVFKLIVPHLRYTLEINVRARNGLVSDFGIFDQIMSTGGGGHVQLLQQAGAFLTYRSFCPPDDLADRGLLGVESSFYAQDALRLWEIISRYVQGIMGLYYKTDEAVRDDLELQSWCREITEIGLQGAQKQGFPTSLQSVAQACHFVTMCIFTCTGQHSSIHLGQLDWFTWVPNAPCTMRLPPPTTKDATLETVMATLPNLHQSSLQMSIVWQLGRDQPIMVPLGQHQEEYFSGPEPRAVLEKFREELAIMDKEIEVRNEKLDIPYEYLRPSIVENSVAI

[5] = target: cGMP-specific 3',5'-cyclic phosphodiesterase (Homo sapiens, UniProt O76074); test: DRUGMATRIX: Phosphodiesterase PDE5 enzyme inhibition (substrate: [3H]cGMP + cGMP); assay type: tissue-based; conditions: platelet; Not Active = under 50% inhibition at 10 µM
[6] = target: Vascular endothelial growth factor receptor 1 (Homo sapiens, UniProt P17948); assay type: cell-based; conditions: huvec; note: in other assays of this panel Not Active means under 50% inhibition at 10 µM
Chain of Vascular endothelial growth factor receptor 1 (P17948 whole entry): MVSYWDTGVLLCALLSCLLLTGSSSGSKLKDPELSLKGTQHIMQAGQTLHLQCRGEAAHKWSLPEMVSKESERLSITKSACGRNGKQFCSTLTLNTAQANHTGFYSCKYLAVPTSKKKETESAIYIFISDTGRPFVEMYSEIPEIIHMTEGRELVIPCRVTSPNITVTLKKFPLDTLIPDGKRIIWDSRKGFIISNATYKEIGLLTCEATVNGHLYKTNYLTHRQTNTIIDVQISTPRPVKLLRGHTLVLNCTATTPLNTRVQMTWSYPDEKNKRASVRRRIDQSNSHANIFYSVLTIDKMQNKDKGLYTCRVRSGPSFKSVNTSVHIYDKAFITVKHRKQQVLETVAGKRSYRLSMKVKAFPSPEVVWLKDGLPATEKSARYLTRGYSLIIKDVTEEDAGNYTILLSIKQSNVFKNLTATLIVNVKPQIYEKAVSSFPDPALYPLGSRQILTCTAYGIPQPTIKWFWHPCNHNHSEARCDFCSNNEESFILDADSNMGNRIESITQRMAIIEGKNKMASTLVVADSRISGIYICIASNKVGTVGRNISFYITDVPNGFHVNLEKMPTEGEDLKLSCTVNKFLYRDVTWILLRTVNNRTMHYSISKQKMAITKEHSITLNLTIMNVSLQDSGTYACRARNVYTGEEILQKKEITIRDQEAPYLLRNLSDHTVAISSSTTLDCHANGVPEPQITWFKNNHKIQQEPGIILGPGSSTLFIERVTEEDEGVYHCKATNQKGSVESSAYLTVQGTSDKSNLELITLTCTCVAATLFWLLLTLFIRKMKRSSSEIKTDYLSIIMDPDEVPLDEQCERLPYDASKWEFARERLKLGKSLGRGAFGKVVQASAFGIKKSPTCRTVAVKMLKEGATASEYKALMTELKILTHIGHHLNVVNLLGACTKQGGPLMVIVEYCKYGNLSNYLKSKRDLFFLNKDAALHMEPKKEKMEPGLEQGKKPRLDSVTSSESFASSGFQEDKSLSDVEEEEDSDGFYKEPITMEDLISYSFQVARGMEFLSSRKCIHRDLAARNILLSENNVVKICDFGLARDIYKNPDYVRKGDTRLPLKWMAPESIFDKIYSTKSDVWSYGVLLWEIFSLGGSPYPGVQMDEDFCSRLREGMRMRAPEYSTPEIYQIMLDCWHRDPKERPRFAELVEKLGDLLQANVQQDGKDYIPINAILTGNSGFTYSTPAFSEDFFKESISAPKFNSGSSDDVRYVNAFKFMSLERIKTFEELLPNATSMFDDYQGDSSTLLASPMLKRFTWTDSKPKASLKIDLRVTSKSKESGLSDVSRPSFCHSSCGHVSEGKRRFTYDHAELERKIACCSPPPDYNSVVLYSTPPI

[7] = target: 5-hydroxytryptamine receptor 4 (Cavia porcellus, UniProt O70528); assay type: cell membranes, Dunkin-Hartley, Striatum, Membrane; note: in other assays of this panel Not Active means under 50% inhibition at 10 µM
Chain of 5-hydroxytryptamine receptor 4 (O70528 whole entry): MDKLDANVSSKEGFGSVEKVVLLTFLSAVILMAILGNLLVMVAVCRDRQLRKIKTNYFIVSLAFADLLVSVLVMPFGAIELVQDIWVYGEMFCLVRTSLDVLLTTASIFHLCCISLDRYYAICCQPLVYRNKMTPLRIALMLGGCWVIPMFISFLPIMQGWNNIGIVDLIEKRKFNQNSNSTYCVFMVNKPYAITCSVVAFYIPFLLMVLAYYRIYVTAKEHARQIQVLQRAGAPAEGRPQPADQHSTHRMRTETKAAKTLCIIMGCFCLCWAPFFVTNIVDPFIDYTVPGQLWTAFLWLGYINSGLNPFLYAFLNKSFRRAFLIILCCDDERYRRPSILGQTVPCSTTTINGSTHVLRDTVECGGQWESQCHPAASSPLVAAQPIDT

[8] = target: T2, Nitric oxide synthase, inducible (Mus musculus, UniProt P29477); design: species or system Escherichia coli;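 note: inhibition of iNOS enzyme activity measured with L-arginine as substrate; in other assays of this panel Not Active means under 50% inhibition at 10 µM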
T2 sequence (P29477 whole entry): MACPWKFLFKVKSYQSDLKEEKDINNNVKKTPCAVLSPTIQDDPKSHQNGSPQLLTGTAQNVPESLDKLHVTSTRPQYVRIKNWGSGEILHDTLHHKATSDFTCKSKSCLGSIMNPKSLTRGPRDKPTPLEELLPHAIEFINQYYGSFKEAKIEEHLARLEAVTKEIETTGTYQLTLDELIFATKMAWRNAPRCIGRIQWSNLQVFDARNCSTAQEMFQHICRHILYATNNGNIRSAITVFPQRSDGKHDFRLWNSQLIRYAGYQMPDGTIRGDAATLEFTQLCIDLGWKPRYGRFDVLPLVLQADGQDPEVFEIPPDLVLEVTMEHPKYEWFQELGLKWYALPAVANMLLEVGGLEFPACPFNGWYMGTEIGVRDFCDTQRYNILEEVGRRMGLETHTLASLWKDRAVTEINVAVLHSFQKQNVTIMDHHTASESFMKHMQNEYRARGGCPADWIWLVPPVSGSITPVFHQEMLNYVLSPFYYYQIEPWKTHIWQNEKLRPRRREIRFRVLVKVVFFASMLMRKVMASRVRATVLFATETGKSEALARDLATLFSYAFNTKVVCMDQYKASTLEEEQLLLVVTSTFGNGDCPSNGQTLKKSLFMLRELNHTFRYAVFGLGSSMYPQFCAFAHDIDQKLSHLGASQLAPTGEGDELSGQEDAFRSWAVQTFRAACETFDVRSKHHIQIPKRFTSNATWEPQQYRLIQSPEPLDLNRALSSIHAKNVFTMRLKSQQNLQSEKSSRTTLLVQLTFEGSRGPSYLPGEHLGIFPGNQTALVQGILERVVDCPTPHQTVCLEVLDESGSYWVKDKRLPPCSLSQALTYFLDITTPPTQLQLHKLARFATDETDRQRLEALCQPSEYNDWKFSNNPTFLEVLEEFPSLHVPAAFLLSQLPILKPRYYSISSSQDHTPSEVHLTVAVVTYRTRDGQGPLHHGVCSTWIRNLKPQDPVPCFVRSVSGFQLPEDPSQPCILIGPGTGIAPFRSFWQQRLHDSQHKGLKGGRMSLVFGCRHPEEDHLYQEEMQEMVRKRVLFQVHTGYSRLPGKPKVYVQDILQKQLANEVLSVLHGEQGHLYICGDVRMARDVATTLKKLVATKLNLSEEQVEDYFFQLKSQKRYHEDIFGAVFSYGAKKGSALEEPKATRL

[9] = DRUGMATRIX: Phorbol Ester radioligand binding (ligand: [3H] PDBu); assay type: cell membranes, Mus musculus, ICR, Brain, Membrane; conditions: Not Active = under 50% inhibition at 10 µM
[10] = DRUGMATRIX: Sigma2 radioligand binding (ligand: [3H] Ifenprodil); assay type: cell membranes, Rattus norvegicus, Wistar, Brain, Membrane; conditions: Not Active = under 50% inhibition at 10 µM
[11] = target: Cytochrome P450 2C19 (Homo sapiens, UniProt P33261); conditions: bti-tn-5b1-4; note: in other assays of this panel Not Active means under 50% inhibition at 10 µM
Chain of Cytochrome P450 2C19 (P33261 whole entry): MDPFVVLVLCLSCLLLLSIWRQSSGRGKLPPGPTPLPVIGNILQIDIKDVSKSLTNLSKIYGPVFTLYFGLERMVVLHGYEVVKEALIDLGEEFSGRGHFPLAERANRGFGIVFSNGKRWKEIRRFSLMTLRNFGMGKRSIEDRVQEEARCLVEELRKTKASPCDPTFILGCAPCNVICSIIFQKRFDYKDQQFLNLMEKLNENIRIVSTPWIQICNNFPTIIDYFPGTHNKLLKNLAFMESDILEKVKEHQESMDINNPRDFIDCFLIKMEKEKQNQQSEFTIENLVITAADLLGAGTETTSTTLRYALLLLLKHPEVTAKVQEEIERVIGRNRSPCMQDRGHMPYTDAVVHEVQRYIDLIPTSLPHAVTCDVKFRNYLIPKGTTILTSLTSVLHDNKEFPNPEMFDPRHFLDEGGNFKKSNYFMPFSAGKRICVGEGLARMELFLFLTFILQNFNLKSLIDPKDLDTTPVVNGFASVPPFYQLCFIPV

SMILES	IC50 [1]	Ki [1]	IC50 [2]	Ki [2]	IC50 [3]	IC50 ([4]; reticulocytes)	IC50 [5]	IC50 [6]	IC50 [7]	IC50 [8]	IC50 [9]	Ki [9]	IC50 [10]	Ki [10]	IC50 [11]	Ki [11]	IC50 ([4]; read-out: IC50)	IC50 ([10]; read-out: IC50)	Ki ([10]; read-out: Ki)
[H]/N=C(/N)N[C@H]1[C@H](O)[C@@H](O)[C@H](O[C@@H]2O[C@@H](C)[C@](O)(C=O)[C@H]2O[C@@H]2O[C@@H](CO)[C@H](O)[C@@H](O)[C@@H]2NC)[C@@H](N/C(N)=N\[H])[C@@H]1O [STREPTOMYCIN]	Not Active	Not Active	Not Active	Not Active	Not Active	Not Active	Not Active	Not Active	Not Active	Not Active	Not Active	Not Active	Not Active	Not Active	Not Active	Not Active	–	–	–
CC(C)C[C@H](NC(=O)[C@@H](O)[C@H](N)Cc1ccccc1)C(=O)O [UBENIMEX]	Not Active	Not Active	Not Active	Not Active	Not Active	Not Active	Not Active	Not Active	Not Active	Not Active	Not Active	Not Active	Not Active	Not Active	Not Active	Not Active	–	–	–
Cc1onc(-c2ccccc2)c1-c1ccc(S(N)(=O)=O)cc1 [VALDECOXIB]	Not Active	Not Active	Not Active	Not Active	Not Active	Not Active	Not Active	Not Active	Not Active	Not Active	Not Active	Not Active	Not Active	Not Active	Not Active	Not Active	–	–	–
CC(=O)N1CCN(c2ccc(OCC3COC(Cn4ccnc4)(c4ccc(Cl)cc4Cl)O3)cc2)CC1 (stereo unspecified) [KETOCONAZOLE]	Not Active	Not Active	Not Active	Not Active	Not Active	–	Not Active	Not Active	Not Active	Not Active	Not Active	Not Active	–	–	Not Active	Not Active	5.42 µM	15.9 µM	9.79 µM
COc1cc(NS(=O)(=O)c2ccc(N)cc2)nc(OC)n1 [SULFADIMETHOXINE]	Not Active	Not Active	Not Active	Not Active	Not Active	Not Active	Not Active	Not Active	Not Active	Not Active	Not Active	Not Active	Not Active	Not Active	Not Active	Not Active	–	–	–
C[C@]1(Cn2ccnn2)[C@H](C(=O)O)N2C(=O)C[C@H]2S1(=O)=O [TAZOBACTAM]	Not Active	Not Active	Not Active	Not Active	Not Active	Not Active	Not Active	Not Active	Not Active	Not Active	Not Active	Not Active	Not Active	Not Active	Not Active	Not Active	–	–	–
[Cl-].[Cl-].[Zn+2] [ZINC CHLORIDE]	Not Active	Not Active	Not Active	Not Active	Not Active	Not Active	Not Active	Not Active	Not Active	Not Active	Not Active	Not Active	Not Active	Not Active	Not Active	Not Active	–	–	–
CN1C(C(=O)Nc2ccccn2)=C(O)c2sccc2S1(=O)=O [TENOXICAM]	Not Active	Not Active	Not Active	Not Active	Not Active	Not Active	Not Active	Not Active	Not Active	Not Active	Not Active	Not Active	Not Active	Not Active	Not Active	Not Active	–	–	–
CC(=O)N[C@@H]1[C@H](Oc2c3cc4cc2Oc2ccc(cc2Cl)[C@@H](O[C@@H]2O[C@@H](CO)[C@@H](O)[C@H](O)[C@@H]2NC(C)=O)[C@@H]2NC(=O)[C@H](NC(=O)[C@@H]4NC(=O)[C@H]4NC(=O)[C@@H](Cc5ccc(c(Cl)c5)O3)NC(=O)[C@H](N)c3ccc(O)c(c3)Oc3cc(O)cc4c3)c3ccc(O)c(c3)-c3c(O[C@H]4O[C@H](CO)[C@@H](O)[C@@H](O)[C@@H]4O)cc(O)cc3[C@@H](C(=O)O)NC2=O)O[C@@H](CO)[C@@H](O)[C@@H]1O	Not Active	Not Active	Not Active	Not Active	Not Active	Not Active	Not Active	Not Active	Not Active	Not Active	Not Active	Not Active	Not Active	Not Active	Not Active	Not Active	–	–	–
COCCCOc1ccnc(C[S+]([O-])c2nc3ccccc3[nH]2)c1C (stereo unspecified) [RABEPRAZOLE]	Not Active	Not Active	Not Active	Not Active	Not Active	Not Active	Not Active	Not Active	Not Active	Not Active	Not Active	Not Active	Not Active	Not Active	Not Active	Not Active	–	–	–
CO[C@H]1/C=C/O[C@@]2(C)Oc3c(C)c(O)c4c(c3C2=O)C2=NC3(CCN(CC(C)C)CC3)NC2=C(NC(=O)/C(C)=C\C=C\[C@H](C)[C@H](O)[C@@H](C)[C@@H](O)[C@@H](C)[C@H](OC(C)=O)[C@@H]1C)C4=O [RIFABUTIN]	Not Active	Not Active	Not Active	Not Active	Not Active	Not Active	Not Active	Not Active	Not Active	Not Active	Not Active	Not Active	Not Active	Not Active	Not Active	Not Active	–	–	–
